Key:
[1] = system: plasmid pS16-hGH DNA; assay: Determination of Pt-DNA adducts by EtBr fluorescence; assay type: binding; details: DNA modified 24 hr
Description: A plasmid (4.8 kbp) containing a gene coding for human growth hormone, plasmid pS16-hGH, was prepared as previously described^(23). The freshly prepared DNA was analyzed by agarose gel (1%) electrophoresis using post-staining with SYBR Green I fluorescent dye (Molecular Probes, Eugene, Oreg.). […] The ratio of absorbance at 260 nm to that at 280 nm was always between 1.8 and 1.9.
DNA were modified by the platinum complexes in 10 mM NaClO4 (pH 7.0) at 37° C. in the dark for 24 hr. Measurements of EtBr fluorescence were performed on an LS50B luminescence spectrometer (Perkin Elmer, Norwalk, Conn.). Fluorescence measurements of DNA modified by platinum in the presence of EtBr were performed using the excitation wavelength of 546 nm (slit 10 run) and emission wavelength of 590 nm (slit 10 nm) at 25° C. The concentrations were 0.01 mg/ml for DNA and 0.04 mg/ml for EtBr, which corresponded to the saturation of all intercalation sites of EtBr in DNA.
EtBr, as the fluorescent probe, was used to distinguish between perturbations induced in DNA by adducts of platinum (II) compounds^(14). Binding of EtBr by intercalation is blocked in a stoichiometric manner by formation of the bifunctional adducts, as of Cis-Pt, which results in a loss of fluorescence intensity. On the other hand, formation of monofunctional adducts results only in a slight decrease of EtBr fluorescence.

[2] = system: 41McisR; assay: Microculture tetrazolium (MTS) cell survival assay; assay type: cell-based
Description: (§1) Cytotoxicity of the synthesized complexes was also tested by the MTS method^(21). Accordingly, the compounds were incubated for 24 hours with the corresponding cell lines and the cell survival in compound-treated cultures was evaluated.
(§2) The complexes were incubated for 24 hours with the above mentioned cell lines and the cell survival in compound-treated cultures was evaluated by the (microculture tetrazolium) MTS method as previously reported.

[3] = system: CH1cisR; assay: Microculture tetrazolium (MTS) cell survival assay; assay type: cell-based
Description: as §1, §2

[4] = system: CH1; assay: Microculture tetrazolium (MTS) cell survival assay; assay type: cell-based; details: 24 hours incubation
Description: as §1, §2

[5] = system: A2780cisR; assay: Microculture tetrazolium (MTS) cell survival assay; assay type: cell-based
Description: as §1, §2

[6] = system: 41M; assay: Microculture tetrazolium (MTS) cell survival assay; assay type: cell-based; details: 24 hours incubation
Description: as §1, §2

[7] = system: A2780; assay: Microculture tetrazolium (MTS) cell survival assay; assay type: cell-based; details: 24 hours incubation
Description: as §1, §2

[8] = system: OV-1063 cells; assay: Platinum complex intracellular accumulation (FAAS); assay type: cell-based, human; details: OV-1063, 24 hr
Description: (§3) Cells were seeded for 48 hr before one of the complexes was added to the culture medium. After 24 hr of exposure, the complexes were removed and the cells washed twice with ice-cold PBS and pelleted. The cells (1*10^6) were dried and mineralized by heating for 10 min in 65% HNO3 (BDH, England)^(22). Samples were dissolved in de-ionized water and each sample was measured at two different dilutions by flameless Zeeman atomic absorption spectrometer (FAAS). The calibration curves included 5 standards of K2PtCl4 stock solution with concentrations ranging from 50 to 250 ng platinum per ml. Platinum content was expressed as picomoles platinum per 1*10^6 cells.
(§4) The Pt content associated with the cells was measured by Atomic Absorption Spectroscopy (AAS).

[9] = system: C-26 cells; assay: Platinum complex intracellular accumulation (FAAS); assay type: cell-based, human; details: C-26, 24 hr
Description: as §3, §4

Question: `C1CCNCC1.Cc1ccncc1.[Cl][Pt][Cl]` [Complex 5, trans-[PtCl2(4-picoline)(piperidine)]] was tested. Which “decrease of EtBr fluorescence intensity by DNA adducts” value [1] did it give?
Answer: Its value is “lower than that of cisplatin, however, greater than that of transplatin”.

Question: What about the “resistance factor (IC50 resistant/IC50 sensitive)” value (“resistance factor” below) ([2]; 41McisR/41M) of the same compound?
Answer: The value was 6.0.

Question: What about the IC50 ([2]; 24 hours incubation, MTS) of the same compound?
Answer: Its IC50 is 210 µM.

Question: And the IC50 ([3]; 24 hours incubation, MTS)?
Answer: Its IC50 is 169 ± 9 µM.

Question: What about the “resistance factor” value ([3]; CH1cisR/CH1) of the same compound?
Answer: The value was “(6.5)”.

Question: What about the IC50 [4] of the same compound?
Answer: Its IC50 is 26 ± 3 µM.

Question: And the IC50 ([5]; 24 hours incubation, MTS)?
Answer: The IC50 was 135 ± 7 µM.

Question: What about the “resistance factor” value ([5]; A2780cisR/A2780) of the same compound?
Answer: The value was 15.

Question: And the IC50 [6]?
Answer: The IC50 was 35 ± 4 µM.

Question: And the IC50 [7]?
Answer: The IC50 was 9 ± 1 µM.

Question: And the Penetration to cells [8]?
Answer: Its Penetration to cells is 2092 pmol Pt/1 * 10^6 cells.

Question: And the Penetration to cells [9]?
Answer: The Penetration to cells was 14974 pmol Pt/1 * 10^6 cells.

Reference: patent US7122668B2, “Platinum complexes and their use in therapy” (priority 2002, dated 2006)
